How the values were obtained:
[1] = system: T-cells and NK-cells; assay: Toxicity of FL118 on immune effector cells; assay type: cell-based, human; conditions: up to 100 nM
Protocol: Toxicity of FL118 on immune effector cells: Cryopreserved BMMNCs derived from MM patients or plasma cell leukemia (PCL) patients, were treated with various concentrations of FL118. After 24 hours, viable CD45^+ CD3^+ T-cells and CD45^+ CD56^+ CD14^− CD3^− NK-cells were enumerated by multiparameter flow cytometry. Additionally, healthy-donor peripheral blood mononuclear cells (PBMCs) were seeded in 96-well flat-bottom plates at 1×10^5 cells/well, stimulated with PMA (25 ng/mL) and ionomycin (500 ng/mL) (both Santa Cruz Biotechnology) for 24 hours, and subsequently treated with FL118 for 48 hours before determining activated CD45^+ CD3^+ CD56^− CD25^+ T-cells by flow cytometry. The percentage cell survival was then calculated using the following formula: % immune cell survival=absolute number of viable immune cells in treated wells/mean absolute number of viable immune cells in untreated wells×100%.

[2] = system: UM9 MM tumors; assay: In vivo efficacy in humanized xenograft RAG2-/-γc-/- model; parameters: species or system mice
Protocol: In vivo efficacy of FL118: The in vivo efficacy of FL118 was studied in a xenograft RAG2^−/−γc^−/− marine model in which human MM cells are grown in a humanized BM like microenvironment generated by subcutaneous inoculation of MSC coated Hybrid scaffolds (4 scaffolds per mice) as described elsewhere (Groen R W, et al. Blood 2012,120:e9-e16). 24 hours before tumor inoculation (UM9; 5×10^5 cells/scaffold) mice were pre-conditioned with 18 mg/kg Busilvex. One week after inoculation, when there was visible tumor growth in all scaffolds by BLI, mice were randomly divided in four groups which were treated as follows: (1) vehicle control (n=3); (2) 0.05 mg/kg FL118 (n=4); (3) 0.1 mg/kg FL118 (n=4); (4) 0.2 mg/kg FL118 (n=4). FL118 or vehicle was administrated i.v. daily for five times. Tumor growth was monitored by weekly BLI measurements as previously described (Groen R W, et al. Blood 2012,120:e9-e16). All animal experiments were conducted for animal experimentation and were in compliance with the Dutch Animal Experimentation Act.

[3] = system: survivin, Mcl-1, XIAP and cIAP2; conditions: cited from earlier work
[4] = target: topoisomerase I (Top1) (Homo sapiens, UniProt P11387); conditions: cited from earlier work
Sequence of topoisomerase I (Top1) (P11387 whole entry, species assumed): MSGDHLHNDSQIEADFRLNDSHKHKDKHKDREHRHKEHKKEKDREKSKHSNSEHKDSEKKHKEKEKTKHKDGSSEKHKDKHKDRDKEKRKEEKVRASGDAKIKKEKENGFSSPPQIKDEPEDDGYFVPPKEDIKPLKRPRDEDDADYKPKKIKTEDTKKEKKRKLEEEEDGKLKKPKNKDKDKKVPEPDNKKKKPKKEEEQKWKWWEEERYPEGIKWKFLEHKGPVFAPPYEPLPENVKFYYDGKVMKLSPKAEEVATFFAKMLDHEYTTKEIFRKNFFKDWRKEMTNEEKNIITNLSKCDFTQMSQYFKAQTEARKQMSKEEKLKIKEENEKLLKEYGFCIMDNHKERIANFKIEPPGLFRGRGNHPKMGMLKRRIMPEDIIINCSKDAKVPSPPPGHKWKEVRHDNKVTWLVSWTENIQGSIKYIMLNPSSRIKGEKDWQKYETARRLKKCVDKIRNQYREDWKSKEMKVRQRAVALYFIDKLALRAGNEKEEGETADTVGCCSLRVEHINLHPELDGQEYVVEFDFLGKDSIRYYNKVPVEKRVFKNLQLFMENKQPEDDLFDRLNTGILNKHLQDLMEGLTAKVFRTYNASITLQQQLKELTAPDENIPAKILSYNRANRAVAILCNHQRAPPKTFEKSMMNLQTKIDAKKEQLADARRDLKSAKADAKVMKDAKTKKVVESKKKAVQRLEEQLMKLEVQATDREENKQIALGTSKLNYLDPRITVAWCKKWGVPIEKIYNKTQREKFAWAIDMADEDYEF

[5] = system: PDX tumors; conditions: in vivo; cited from earlier work
[6] = Storage and heat stability of FL118; assay type: physicochemical
[7] = system: primary MM cells; assay: Flow cytometry-based ex vivo assay using BMMNCs from MM patients; assay type: cell-based, human
Protocol: Flow cytometry-based […] assays using BMMNCs: Cryopreserved BMMNCs derived from MM patients were incubated on a monolayer of 2×10^4 BMMSCs for 16 till 24 hours and subsequently treated with FL118 ([…]) and/or, melphalan (5-10 μM/L), bortezomib (2-3 nmol/L) for 48 hours. Concerning immunotherapy, treatment included FL118 (10 or 100 nM) and/or daratumumab, or CAR T-cells for 24 hours. BMMNC samples contained sufficient numbers of functional effector cells to induce antibody-mediated plasma cell lysis. At the end of treatment, after addition of flow-count fluorospheres (Beckman Coulter), adherent cells were detached with Accutase, blocked with human immunoglobulin (100 μg/mL, Sanquin), and stained for CD38, CD138, CD45 (Beckman Coulter) and live/dead cell marker (LIVE/DEAD Fixable Near-111; Life Technologies) to determine absolute numbers of viable MM cells using flow cytometry. The percentage lysis was then calculated using the following formula: % lysis cells=1−absolute number of viable CD138^+ CD38^+ CD45^dim MM cells in treated wells/mean absolute number of viable CD138^+ CD38^+ CD45^dim MM cells in untreated wells×100%.

[8] = system: cisplatin-resistant pancreatic cancer cells; conditions: cited from earlier work
[9] = system: Survivin; assay: Intracellular staining of Survivin in patient MM cells; assay type: cell-based, human; conditions: FL118-susceptible RR patients, 16 h
Protocol: Intracellular staining Survivin and Mcl-1: Mcl-1 and survivin expression levels in MM cells of BMMNC patient samples were determined by intracellular staining followed by flow cytometry. Untreated or FL118 treated (16 h) patient samples were washed twice with cold PBS. Cells were blocked with human immunoglobulin and stained for CD38 (BD biosciences), CD138 (Bio-Connect) and live/dead cell marker. In addition, LUC- and Green fluorescence protein (GFP)-transduced UM9 MM-cells were incubated alone or a monolayer of 1×10^6 BMMSCs in a 100 mm dish for 24 or 48 hours. Non-adherent cells were harvested by taking culture medium from plates and washing plates with PBS by gentle pipetting. Adherent cells were harvested using Stem-Pro Accutase. Both adherent and non-adherent cells were blocked with human immunoglobulin and stained for CD105 (Synobiotechnology) and live/dead marker. The stained patient cells and UM9 cells were then fixated in 4% formaldehyde for 15 minutes at room temperature. After fixation, the cells were placed in ice cold 90% methanol for 30 minutes on ice for permeabilization and subsequently stored at −20° C. […] Expression levels were analyzed in viable CD38^+ CD138^+ patient MM cells and GFP^+ CD105^− UM9-cells using flow cytometry.

[10] = X-ray powder diffractometer (XRPD) crystal versus amorphous status; assay type: physicochemical
Protocol: Crystal versus amorphous status analyses of FL118 versus the formulated FL118 product using X-ray powder diffractometer: The crystal or amorphous status of each formulated FL118-a type of CD complex powder is determined using X-ray powder diffractometer (XRPD). Specifically, about 5 mg samples of each formulated FL118-a type of CD complex powder are spread onto the center of Si-substrate (samples area will be 1 cm in diameter) for XRPD testing. Laboratory XRPD patterns for samples will be collected at 25° C. The diffraction data will be collected over the angular range of 2θ=3°-40° with a step size of 2θ=0.02° and accounting time of 0.12 s/step.

[11] = 0.2 mg/kg i.v. daily for five times
[12] = primary BMMNC samples, 48 hours

Which results are given for `CC[C@@]1(O)C(=O)OCc2c1cc1n(c2=O)Cc2cc3cc4c(cc3nc2-1)OCO4` [FL118]?
toxic effects on resting T-cells or NK-cells ([1]; BMMNC samples from MM or PCL patients, 24 hours): no toxic effects; toxic effects on PMA-activated CD25+ T-cells ([1]; healthy individuals, 48 hours): no toxic effects; delay of tumor outgrowth [2, 11]: up to 5 weeks; effect on initial tumor volume [2, 11]: reduce the initial tumor volume; in vivo anti-MM activity ([2]; 0.05, 0.1, 0.2 mg/kg i.v. daily for five times): dose-dependent; inhibition of expression of survivin, Mcl-1, XIAP and cIAP2 [3]: selectively inhibits; concentration level for effects on Top1 activity [4]: μM levels; effect on PDX tumors resistant/non-sensitive to FL118 and gemcitabine, combination with gemcitabine [5]: eliminated the PDX tumors; effect on PDX tumors, FL118 alone [5]: effectively eliminated PDX tumors; stability at high temperature ([6]; 60-80° C., spray-dry process, at least a period of time): without any issues; storage stability ([6]; before and/or after formulation, room temperature or 4° C.): highly stable; combination of FL118 with CAR T-cells, observed versus expected lysis ([7]; 10 nM FL118, BLISS model): synergistic fashion; patient MM cell lysis by CAR T-cells in the presence of BMMSCs ([7]; 10 nM FL118, E:T ratio 1:1, 24 hours): significantly enhanced; anti-MM activity of FL118 alone ([7]; 10 nM, 24 hours, patient-derived MM cells): no/minimal anti-MM activity; BMMSC-mediated protection against daratumumab-induced MM cell lysis ([7]; 100 nM FL118, 10 μg/mL daratumumab, 24 hours): abrogated; efficacy in RR patient samples compared to ND patient samples ([7]; 100 nmol/L, 24 hours, 12 RR and 15 ND): significantly more effective; FL118-induced MM cell lysis ([7]; 100 nmol/L, 24 hours, in 15 of 27 patient samples): ≥ 20%; interaction between FL118 and daratumumab in the presence of BMMSCs ([7]; observed versus expected lysis): synergistic; combination effect with bortezomib (Bliss model) [7, 12]: additive effects; combination effect with melphalan (Bliss model) [7, 12]: synergistic effects; activity on cisplatin-resistant pancreatic cancer cells [8]: preferentially targets and kills; spheroid formation of pancreatic cancer stem cells [8]: inhibits; levels of Survivin expression [9]: significantly reduced; crystal versus amorphous status [10]: crystal

Reference: patent US12268682B2, “Anticancer drug FL118 formulation for treatment of human cancer” (CANGET BIOTEKPHARMA, LLC, priority 2019, dated 2025)
